Measured values from ChEMBL document CHEMBL3102801, “Synthesis and antiproliferative activity of new derivatives containing the polycyclic system 5,7:7,13-dimethanopyrazolo[3,4-b]pyrazolo[3',4':2,3]azepino[4,5-f]azocine” (Eur J Med Chem, 2014).

Columns and labels:
Type in all cases: functional
SK-MEL-2 = experiment: Growth inhibition of human SK-MEL-2 cells after 48 hrs by sulforhodamine B assay; conditions: SK-MEL-2, 48 h
T47D = experiment: Growth inhibition of human T47D cells after 48 hrs by sulforhodamine B assay
[1] = Growth inhibition of human OVCAR5 cells after 48 hrs by sulforhodamine B assay; conditions: OVCAR-5, 48 h
MCF7 = experiment: Growth inhibition of human MCF7 cells after 48 hrs by sulforhodamine B assay; conditions: MCF7, 48 h
SK-OV-3 = experiment: Growth inhibition of human SKOV3 cells after 48 hrs by sulforhodamine B assay; conditions: SK-OV-3, 48 h
HOP-62 = experiment: Growth inhibition of human HOP62 cells after 48 hrs by sulforhodamine B assay; conditions: HOP-62, 48 h
[2] = Growth inhibition of human UO31 cells after 48 hrs by sulforhodamine B assay; conditions: UO-31, 48 h
786-0 = experiment: Growth inhibition of human 786-0 cells after 48 hrs by sulforhodamine B assay; conditions: 786-0, 48 h
SNB-19 = experiment: Growth inhibition of human SNB19 cells after 48 hrs by sulforhodamine B assay; conditions: SNB-19, 48 h
TK-10 = experiment: Growth inhibition of human TK10 cells after 48 hrs by sulforhodamine B assay; conditions: TK-10, 48 h
[3] = Growth inhibition of human HOP92 cells after 48 hrs by sulforhodamine B assay; conditions: HOP-92, 48 h
Malme-3M = experiment: Growth inhibition of human MALME-3M cells after 48 hrs by sulforhodamine B assay
NCI-H522 = experiment: Growth inhibition of human NCI-H522 cells after 48 hrs by sulforhodamine B assay; conditions: NCI-H522, 48 h
SK-MEL-28 = experiment: Growth inhibition of human SK-MEL-28 cells after 48 hrs by sulforhodamine B assay; conditions: SK-MEL-28, 48 h
IGROV-1 = experiment: Growth inhibition of human IGROV1 cells after 48 hrs by sulforhodamine B assay; conditions: IGROV-1, 48 h
[4] = Growth inhibition of human NCI-ADR-RES cells after 48 hrs by sulforhodamine B assay
MDA-MB-231 = experiment: Growth inhibition of human MDA-MB-231 cells after 48 hrs by sulforhodamine B assay; conditions: MDA-MB-231, 48 h
SN12C = experiment: Growth inhibition of human SN12C cells after 48 hrs by sulforhodamine B assay
[5] = Growth inhibition of human Hs 578T cells after 48 hrs by sulforhodamine B assay
[6] = Growth inhibition of human OVCAR4 cells after 48 hrs by sulforhodamine B assay; conditions: OVCAR-4, 48 h
NCI-H322M = experiment: Growth inhibition of human NCI-H322M cells after 48 hrs by sulforhodamine B assay
PC-3 = experiment: Growth inhibition of human PC3 cells after 48 hrs by sulforhodamine B assay; conditions: PC-3, 48 h
[7] = Growth inhibition of human SF539 cells after 48 hrs by sulforhodamine B assay; conditions: SF-539, 48 h
A498 = experiment: Growth inhibition of human A498 cells after 48 hrs by sulforhodamine B assay; conditions: A498, 48 h
[8] = Growth inhibition of human HCC2998 cells after 48 hrs by sulforhodamine B assay; conditions: HCC 2998, 48 h
NCI-H226 = experiment: Growth inhibition of human NCI-H226 cells after 48 hrs by sulforhodamine B assay; conditions: NCI-H226, 48 h
SF-268 = experiment: Growth inhibition of human SF268 cells after 48 hrs by sulforhodamine B assay; conditions: SF-268, 48 h
NCI-H23 = experiment: Growth inhibition of human NCI-H23 cells after 48 hrs by sulforhodamine B assay; conditions: NCI-H23, 48 h
[9] = Growth inhibition of human RXF393 cells after 48 hrs by sulforhodamine B assay; conditions: RXF 393, 48 h
BT-549 = experiment: Growth inhibition of human BT549 cells after 48 hrs by sulforhodamine B assay; conditions: BT-549, 48 h
OVCAR-3 = experiment: Growth inhibition of human OVCAR3 cells after 48 hrs by sulforhodamine B assay; conditions: OVCAR-3, 48 h
[10] = Growth inhibition of human UACC257 cells after 48 hrs by sulforhodamine B assay; conditions: UACC-257, 48 h
ACHN = experiment: Growth inhibition of human ACHN cells after 48 hrs by sulforhodamine B assay
NCI-H460 = experiment: Growth inhibition of human NCI-H460 cells after 48 hrs by sulforhodamine B assay; conditions: NCI-H460, 48 h
U-251 = experiment: Growth inhibition of human U251 cells after 48 hrs by sulforhodamine B assay; conditions: U-251, 48 h
MDA-MB-435 = experiment: Growth inhibition of human MDA-MB-435 cells after 48 hrs by sulforhodamine B assay; conditions: MDA-MB-435, 48 h
HCT-116 = experiment: Growth inhibition of human HCT116 cells after 48 hrs by sulforhodamine B assay; conditions: HCT-116, 48 h
HCT-15 = experiment: Growth inhibition of human HCT15 cells after 48 hrs by sulforhodamine B assay; conditions: HCT-15, 48 h
DU-145 = experiment: Growth inhibition of human DU145 cells after 48 hrs by sulforhodamine B assay; conditions: DU-145, 48 h
HT-29 = experiment: Growth inhibition of human HT-29 cells after 48 hrs by sulforhodamine B assay; conditions: HT-29, 48 h
A549 = experiment: Growth inhibition of human A549 cells after 48 hrs by sulforhodamine B assay; conditions: A549, 48 h
MDA-MB-468 = experiment: Growth inhibition of human MDA-MB-468 cells after 48 hrs by sulforhodamine B assay; conditions: MDA-MB-468, 48 h
UACC-62 = experiment: Growth inhibition of human UACC62 cells after 48 hrs by sulforhodamine B assay; conditions: UACC-62, 48 h
OVCAR-8 = experiment: Growth inhibition of human OVCAR8 cells after 48 hrs by sulforhodamine B assay; conditions: OVCAR-8, 48 h

With Cc1nn(-c2ccccc2)c2c1C(C)C1CC3(CC4(C)CC3C1(C)c1c(C)nn(-c3ccccc3)c1N4C)N2C (stereo not drawn) the GI50 (SK-MEL-2) was > 100 µM, the GI50 (T47D) was 2.64 µM and the GI50 [1] was > 100 µM. It also gave a GI50 (MCF7) of 3.46 µM, a GI50 (SK-OV-3) of 24.1 µM and a GI50 (HOP-62) of 18.3 µM. The GI50 [2] was > 100 µM, the GI50 (786-0) was > 100 µM and the GI50 (SNB-19) was > 100 µM. For the same compound, the GI50 (TK-10) was > 100 µM, the GI50 [3] was 0.792 µM and the GI50 (Malme-3M) was > 100 µM. For the same compound, the GI50 (NCI-H522) was 3.88 µM, the GI50 (SK-MEL-28) was 3.14 µM and the GI50 (IGROV-1) was > 100 µM. For the same compound, the GI50 [4] was > 100 µM, the GI50 (MDA-MB-231) was > 100 µM and the GI50 (SN12C) was > 100 µM. The GI50 [5] was > 100 µM, the GI50 [6] was 8.66 µM and the GI50 (NCI-H322M) was > 100 µM. The GI50 (PC-3) was 0.591 µM, the GI50 [7] was > 100 µM and the GI50 (A498) was > 100 µM. The GI50 [8] was > 100 µM, the GI50 (NCI-H226) was > 100 µM and the GI50 (SF-268) was > 100 µM. The GI50 (NCI-H23) was > 100 µM, the GI50 [9] was 3.41 µM and the GI50 (BT-549) was > 100 µM.
In the case of C=C1c2c(C)nn(-c3ccccc3)c2N(C)C23CC1C1(C)c4c(C)nn(-c5ccccc5)c4N(C)C(C)(CC12)C3 (stereo not drawn), the GI50 (SK-MEL-2) is reported as 6.78 µM, the GI50 (T47D) is reported as 2.13 µM and the GI50 [1] is reported as > 100 µM. The GI50 (MCF7) was 2.99 µM, the GI50 (SK-OV-3) was 4.64 µM and the GI50 (HOP-62) was 7.15 µM. The GI50 (786-0) was 11.8 µM, the GI50 (SNB-19) was 11 µM and the GI50 (OVCAR-3) was 4.58 µM. It also gave a GI50 [10] of 2.87 µM, a GI50 (TK-10) of 4.77 µM and a GI50 (ACHN) of 4.78 µM. It also gave a GI50 [3] of 0.549 µM, a GI50 (Malme-3M) of 4.19 µM and a GI50 (NCI-H460) of 3.35 µM. It also gave a GI50 (U-251) of 4.44 µM, a GI50 (NCI-H522) of 2.12 µM and a GI50 (MDA-MB-435) of 4.12 µM. It also gave a GI50 (SK-MEL-28) of 2.26 µM, a GI50 (HCT-116) of 3.72 µM and a GI50 (HCT-15) of 3.67 µM. For the same compound, the GI50 (IGROV-1) was 11.9 µM, the GI50 [4] was 6.04 µM and the GI50 (MDA-MB-231) was 4.55 µM. The GI50 (SN12C) was 9.92 µM, the GI50 (DU-145) was 8.7 µM and the GI50 [5] was 5.67 µM. It also gave a GI50 (HT-29) of 3.59 µM, a GI50 (A549) of 2.37 µM and a GI50 [6] of 4.49 µM. For the same compound, the GI50 (NCI-H322M) was 33.8 µM, the GI50 (PC-3) was 0.979 µM and the GI50 [7] was 26.7 µM. For the same compound, the GI50 (A498) was 4.28 µM, the GI50 (MDA-MB-468) was 2.9 µM and the GI50 [8] was 6.22 µM. It also gave a GI50 (UACC-62) of 4.38 µM, a GI50 (NCI-H226) of 15.3 µM and a GI50 (OVCAR-8) of 5.41 µM. The GI50 (SF-268) was 7.52 µM, the GI50 (NCI-H23) was 7.99 µM and the GI50 [9] was 2.04 µM. The GI50 (BT-549) was 5.55 µM.
With COc1ccc(-n2nc(C)c3c2N(C)C2(C)CC4C3(C)C3CC4(C2)N(C)c2c(c(C)nn2-c2ccc(OC)cc2)C3C)cc1 (stereo not drawn) the GI50 (SK-MEL-2) was 7.29 µM, the GI50 (T47D) was 2.44 µM and the GI50 [1] was > 100 µM. For the same compound, the GI50 (MCF7) was 4.02 µM, the GI50 (SK-OV-3) was 2.53 µM and the GI50 (HOP-62) was 3.1 µM. It also gave a GI50 (786-0) of 5.47 µM, a GI50 (SNB-19) of 4.45 µM and a GI50 (OVCAR-3) of 7.14 µM. The GI50 [10] was 2.34 µM, the GI50 (TK-10) was 4.77 µM and the GI50 (ACHN) was 6.13 µM. For the same compound, the GI50 (Malme-3M) was 6.34 µM, the GI50 (NCI-H460) was 3.69 µM and the GI50 (U-251) was 3.94 µM. It also gave a GI50 (NCI-H522) of 0.891 µM, a GI50 (SK-MEL-28) of 1.52 µM and a GI50 (HCT-116) of 2.09 µM. For the same compound, the GI50 (IGROV-1) was 19.5 µM, the GI50 [4] was 8.03 µM and the GI50 (MDA-MB-231) was 6.35 µM. The GI50 (SN12C) was 8.07 µM, the GI50 (DU-145) was 23 µM and the GI50 [5] was 4.27 µM. It also gave a GI50 (HT-29) of 3.39 µM, a GI50 (A549) of 3.29 µM and a GI50 [6] of 5.95 µM. For the same compound, the GI50 (NCI-H322M) was 22.4 µM, the GI50 (PC-3) was 1.71 µM and the GI50 [7] was 63.5 µM. For the same compound, the GI50 (A498) was 3.95 µM, the GI50 (MDA-MB-468) was 4.76 µM and the GI50 [8] was 9.65 µM. The GI50 (UACC-62) was 12.6 µM, the GI50 (NCI-H226) was 5.34 µM and the GI50 (OVCAR-8) was 4.19 µM. It also gave a GI50 (SF-268) of 4.08 µM, a GI50 (NCI-H23) of 18.7 µM and a GI50 [9] of 2.92 µM. For the same compound, the GI50 (BT-549) was 4.17 µM.
